Each structure is given as a SMILES string. pIC50, pKd, pKi: −log10 of the molar value.

A short description of data set [1]: Cytotoxicity against human HeLa-MAGI-CCR5 cells.
The nature of data set [2]: Cytotoxicity against human CEM cells measured after 6 days. To be noted: CEM cells (CCRF-CEM).
Data set [3] relates to Human immunodeficiency virus 1. In words: Antiviral activity against HIV-1 infected in lymphoblastoid cell (unknown origin). To be noted: Human immunodeficiency virus 1, Lymphoblastoid cell.
Data set [4] concerns Human immunodeficiency virus 1. The data set is described as follows: Antiviral activity against HIV-1 LAV infected in human CEM cells. The data set is classed as functional, organism-based. To be noted: Human immunodeficiency virus 1, LAV, CCRF-CEM.
Data set [5] concerns Human immunodeficiency virus 1. The data set is described as follows: Antiviral activity against HIV-1 infected in human HeLa-MAGI-CCR5 cells. The following applies: Human immunodeficiency virus 1, HeLa-MAGI-CCR5.
In data set [6] the test system is Human immunodeficiency virus 1. In words: Antiviral activity against HIV-1 infected in PBMC (unknown origin). The following applies: Human immunodeficiency virus 1, PBMC.
Data set [7] in a line: Oral bioavailability in cynomolgus monkey. The following applies: in vivo.
Data set [8] in a line: Cytotoxicity against PBMC (unknown origin).
Data set [9] is described as follows: Cytotoxicity against lymphoblastoid cell (unknown origin). The following applies: lymphoblastoid cells.
Data set [10] is described as follows: Oral bioavailability in rat. To be noted: in vivo.
Data set [11] is described as follows: Oral bioavailability in mouse. To be noted: in vivo.
The nature of data set [12]: Inhibition of HIV integrase strand transfer activity. The arrangement: species or system Human immunodeficiency virus.
The nature of data set [13]: Inhibition of HIV-1 integrase by multiple well plate integration assay. The arrangement: species or system Human immunodeficiency virus.
Data set [14] deals with Human immunodeficiency virus 1. The data set is described as follows: Antiviral activity against HIV-1 infected in human MT4 cells assessed as reduction in virus induced cytopathic effect. The class given is functional, organism-based. To be noted: Human immunodeficiency virus 1, MT4. (In general: Protection from cytopathic effect is a common read-out in antiviral testing.)

The target of data set [15] is Human immunodeficiency virus type 1 protease (Human immunodeficiency virus 1, UniProt Q72874). The data set is described as follows: Inhibition of HIV-1 protease expressed in Escherichia coli incubated for 90 mins by fluorescence based analysis.
Data set [16] relates to Human immunodeficiency virus 1. In words: Antiviral activity against HIV-1 IIIB infected in human H9 cells. The data set is classed as functional, organism-based. The following applies: Human immunodeficiency virus 1, IIIB.
Data set [17] deals with Human immunodeficiency virus. In words: Antiviral activity against HIV. The data set is classed as functional, organism-based. To be noted: Human immunodeficiency virus 1.
Data set [18] can be described thus: Binding affinity to HIV protease assessed as inhibition constant. The arrangement: species or system Human immunodeficiency virus.
The subject of data set [19] is Human immunodeficiency virus 1. The data set is described as follows: Antiviral activity against HIV-1 IIIB infected in human MT4 cells incubated for 7 days by ELISA. The data set is classed as functional, organism-based. To be noted: Human immunodeficiency virus 1, IIIB, MT4, 168 h. On the technique in general: An ELISA detects its analyte on a solid surface through an enzyme-linked reagent.

Data set [20] relates to Human immunodeficiency virus 1. The data set is described as follows: Antiviral activity against HIV-1 infected in human PBMC. The class given is functional, organism-based. The following applies: Human immunodeficiency virus 1, PBMC.
For data set [21], the system named is Human immunodeficiency virus 1. In words: Antiviral activity HIV-1 infected in HEK293T cells assessed as inhibition of late stage viral replication. The class given is functional, organism-based. To be noted: Human immunodeficiency virus 1, HEK-293T.
In data set [22] the target is Human immunodeficiency virus type 1 Gag protein (Human immunodeficiency virus 1, UniProt Q77YG1). The data set is described as follows: Binding affinity to HIV1 Gag assessed as dissociation constant.
The nature of data set [23]: Metabolic stability in rhesus monkey hepatocytes assessed as half-life. The class given is ADME, cell-based, Macaca mulatta, Hepatocyte.
Data set [24] in a line: Cytotoxicity against HEK293T cells incubated for 72 hrs by MTT assay. To be noted: human. The data set is classed as toxicity, cell-based, HEK-293T. Background: Formazan colour is commonly taken as a measure of viable cells.
Data set [25] concerns Human immunodeficiency virus 1. The data set is described as follows: Antiviral activity against VSV-G pseudotyped HIV-1 infected in HEK293T cells assessed as inhibition of early stage viral replication preincubated with cells for 30 mins followed by viral infection for 3 hrs and measured 48 hrs after media replacement with compound by luciferase assay. The data set is classed as functional, organism-based. To be noted: Human immunodeficiency virus 1, HEK-293T.

Data set [26] deals with Human immunodeficiency virus 1. In words: Antiviral activity against HIV-1 KELL infected in human CEM-SS cells assessed as reduction in virus-induced cytopathic effect by XTT assay. The class given is functional, organism-based. The following applies: Human immunodeficiency virus 1, KELL.
Data set [27] concerns Human immunodeficiency virus 1. The data set is described as follows: Antiviral activity against HIV-1 G infected in human CEM-SS cells assessed as reduction in virus-induced cytopathic effect by XTT assay. To be noted: Human immunodeficiency virus 1, G. The class given is functional, organism-based.
Data set [28] concerns Human immunodeficiency virus 1. In words: Antiviral activity against HIV-1 PM16 infected in human CEM-SS cells assessed as reduction in virus-induced cytopathic effect by XTT assay. The class given is functional, organism-based. To be noted: Human immunodeficiency virus 1, PM16, CEM-SS.
The test system of data set [29] is Human immunodeficiency virus 1. In words: Antiviral activity against HIV-1 LAV infected in human CEM-SS cells assessed as reduction in virus-induced cytopathic effect by XTT assay. The class given is functional, organism-based. To be noted: Human immunodeficiency virus 1, LAV.
For data set [30], the system named is Human immunodeficiency virus 1. The data set is described as follows: Antiviral activity against HIV-1 214 infected in human CEM-SS cells assessed as reduction in virus-induced cytopathic effect by XTT assay. The data set is classed as functional, organism-based. To be noted: Human immunodeficiency virus 1, 214, CEM-SS.
Data set [31] concerns Human immunodeficiency virus 1. In words: Antiviral activity against HIV-1 SK-1 infected in human CEM-SS cells assessed as reduction in virus-induced cytopathic effect by XTT assay. The data set is classed as functional, organism-based. The following applies: Human immunodeficiency virus 1, SK-1, CEM-SS.
In data set [32] the test system is Human immunodeficiency virus 1. The data set is described as follows: Antiviral activity against HIV-1 TP-1 infected in human CEM-SS cells assessed as reduction in virus-induced cytopathic effect by XTT assay. The data set is classed as functional, organism-based. The following applies: Human immunodeficiency virus 1, TP-1, CEM-SS.
In data set [33] the test system is Human immunodeficiency virus 1. The data set is described as follows: Antiviral activity against HIV-1 205 infected in human CEM-SS cells assessed as reduction in virus-induced cytopathic effect by XTT assay. The following applies: Human immunodeficiency virus 1, 205, CEM-SS. The class given is functional, organism-based.

Turning to `Nc1nc(=O)n([C@@H]2CS[C@H](CO)O2)cc1F` [EMTRICITABINE], the CC50 in [1], in [8] and in data set [9] was > 200000 nM each time. In data set [2], the CC50 at 144 h is > 100000 nM. The pIC50 in data set [3] is 9.00; in [4], 8.05; in data set [5], 9.00; in data set [6], 9.00. The bioavailability in data set [7], in data set [10] and in [11] was ~58% each time.

Compound `O=C(NCc1c(F)cc(F)cc1F)c1cn2c(c(O)c1=O)C(=O)N1[C@H]3CC[C@H](C3)O[C@@H]1C2` [BICTEGRAVIR] had a pIC50 in [12] of 8.62.

Consider `O=C(O)/C(O)=C/C(=O)C1C=Nc2ccc(Cl)cc21` (centres undefined), for which, in data set [13], the pIC50 is 5.64.

Take `Cc1c(Sc2ccccc2)n(COCCO)c(=O)[nH]c1=O` [HEPT]: the pIC50 in data set [14] is 5.15.

Consider `CCCC(CCc1ccccc1)c1cc(O)c(C(CC)c2ccccc2)c(=O)o1` (centres undefined), for which, in [15], the pKi is 7.46.

In [16], `CCC[C@@]1(CCc2ccccc2)CC(O)=C([C@H](CC)c2cccc(NS(=O)(=O)c3ccc(C(F)(F)F)cn3)c2)C(=O)O1` showed a pIC50 of 7.52 and a 90% effect concentration (IC90) of 100 nM. This compound also showed a negative logarithm of the IC50 (pIC50) in data set [17] of 7.52. Besides, the pKi in [18] is 8.10.

In data set [19], `CCC(Cc1ccccc1)c1cc(O)c(C(CC)c2ccccc2)c(=O)o1` (centres undefined) showed a pIC50 of 5.52.

Consider `CC(C)(C#Cc1ccc(-c2ccc(Cl)c3c(NS(C)(=O)=O)nn(CC(F)(F)F)c23)c([C@H](Cc2cc(F)cc(F)c2)NC(=O)Cn2nc(C(F)(F)F)c3c2C(F)(F)[C@@H]2C[C@H]32)n1)S(C)(=O)=O`, for which the negative logarithm of the IC50 (pIC50) is 10.30 in data set [20], 9.50 in data set [21] and 10.26 in data set [25]. In addition, in data set [22], the pKd was 8.96. Moreover, in [23], the half-life was 202 h. In addition, the half-maximal cytotoxic concentration (CC50) at 72 h in data set [24] was > 50000 nM.

Take `O=S1(c2ccccc2)=NC(=S)Nc2ccccc21` (centres undefined): the negative-log IC50 (pIC50) in data set [26], in data set [27], in data set [28], in data set [29], in [30] and in [31] was 6.02 each time. Further, the pIC50 in data set [32] and in data set [33] was 6.02 throughout.

Broadly, the CC50 is the concentration that lowers cell viability or growth by half. Usually pIC50 stands for the negative decadic logarithm of the IC50, by convention in mol/L. The bioavailability is dose-corrected exposure relative to a reference, in per cent. For orientation: pKi means −log10 of the Ki, conventionally taken in molar units. In general, IC90 refers to the concentration needed for an effect of 90%. Usually pKd stands for the Kd on a negative log10 scale, so that one unit is a factor of ten. For orientation: half-life means the time in which the quantity being followed falls by half.

The record behind these values is ChEMBL document CHEMBL5634071, “Fluorine in anti-HIV drugs approved by FDA from 1981 to 2023” (Eur J Med Chem, 2023).
